# Reference: patent US4201865A, “Novel prostaglandin analogues” (Gruppo Lepetit S.p.A., priority 1978, dated 1980)
# Test system: acidic gastric secretion
# Test: inhibition of the acidic gastric hypersecretion induced by histamine in dogs (gastric fistula and Haidenhain pouche)
# Type: in vivo, mongrel dogs
# Details: mean of four dogs; for % inhibition of the acidic gastric secretion over the controls in the H.P.: histamine 160 μg kg^-1 h^-1, denervated Haidenhain pouche; for % inhibition of the acidic gastric secretion over the controls in the G.F.: histamine 160 μg kg^-1 h^-1, innervated gastric fistula (main stomach)
# Procedure: In the actual practice, the gastric antisecretory properties were evaluated on the basis of their effectiveness in inhibiting the hyperacidity induced by hystamine in dogs. Hystamine, which is a potent stimulator of the acidic gastric secretion (see Bertaccini et al. Eur. Journ. Pharmacol., 28, 360, 1974), was administered intravenously by continuous infusion during the experiments.
# A group of four mongrel dogs weighing approximately 20 Kg was used in each experiments.
# The dogs were surgically operated in the stomachs according to the method described by Bertaccini et al. (see above), in order to provide each animal with an innervated gastric fistula (G.F.) or main stomach, and a denervated Haidenhain pouche (H.P.).
# The main stomach and the Haidenhain pouche were each equipped with a cannula in order to allow the gastric juices to drain to the exterior by gravity. The two surgically prepared cavities allow to determine if the antisecretory effect has to be ascribed to a direct action of the tested compounds on the oxyntic cells ie., the cells of the gastric walls secreting acidity, (inhibition of the hyperacidity produced both by G.F. and H.P.) or if it is mediated by the autonomous nervous system (inhibition of the hyperacidity produced only by G.F.). After a period of four to five weeks which was allowed to the animals for recovery, the dogs were administered intravenously with histamine in the amount of 160 micrograms of hystamine per kg. of body weight per hour (160 μg-kg^-1 h^-1) in order to stimulate the acidic secretion both in the G.F. and in the H.P. The maximum secretory effect was reached after approximately 1 hour and the infusion of histamine was prolonged for approximately three further hours. During the whole period of infusion, the acidic output was collected every ten minutes and titrated by means of NaOH 0.1 to pH 7.0 on an automatic titrator (Radiometer, Copenhagen). The so-obtained values (mean of four dogs) were considered as the "control values". Food, but not water, was withheld 18 hours before each experiments. At the beginning, the dogs were administered with 160 μg kg^-1 h^-1 of histamine. After reaching the maximum secretory value ie., approximately after 1 hour, the compound to be tested was administered intravenously at predetermined dosages per kg. of body weight during one hour, while the infusion of histamine at the above dosage was carried on. During this period the acidic output both from the G.F. and H.P. was collected every ten minutes and titrated as described above.
# By means of the so obtained values (mean of four dogs) and the corresponding "control values" ie., the values obtained by determining the acidic output for one hour after the maximum secretory effect due to histamine was reached, it was possible to establish, by obvious calculations, the percent inhibition of the acidic gastric secretion both from the G.F. and the H.P. of the tested compounds versus the controls.
# Representative experiments have shown that dosages varying from about 50 to about 100 μg/kg hour practically block the gastric hyperacidity induced by histamine both in the G.F. and in the H.P. This can be seen from the following table, wherein the results obtained by testing the compound of example 2 having [α]D^20 =-77.7 (c=0.67% in CHCl3) and the compound of example 5 having [α]D^20 =-45 (c=0.46% in CHCl3) are reported: […]
# [1] = 10 μg kg^-1 h^-1, intravenous during one hour
# [2] = 25 μg kg^-1 h^-1, intravenous during one hour
# [3] = 50 μg kg^-1 h^-1, intravenous during one hour
# [4] = 100 μg kg^-1 h^-1, intravenous during one hour
SMILES,% inhibition of the acidic gastric secretion over the controls in the H.P. [1],% inhibition of the acidic gastric secretion over the controls in the G.F. [1],% inhibition of the acidic gastric secretion over the controls in the H.P. [2],% inhibition of the acidic gastric secretion over the controls in the G.F. [2],% inhibition of the acidic gastric secretion over the controls in the H.P. [3],% inhibition of the acidic gastric secretion over the controls in the G.F. [3],% inhibition of the acidic gastric secretion over the controls in the H.P. [4],% inhibition of the acidic gastric secretion over the controls in the G.F. [4]
"CCCCC(OC)C(O)/C=C/[C@H]1[C@H](O)CC(=O)[C@@H]1C/C=C\CCCC(=O)OC (single isomer, unassigned) [Example 2, 11α, 15-Dihydroxy-16-methoxy-9-oxo-prosta-5(Z),13(E)-diene-1-oic-acid methyl esters]",25%,25%,50%,50%,95%,95%,,
"CCCCC(C)(OC)C(O)/C=C/[C@H]1[C@H](O)CC(=O)[C@@H]1C/C=C\CCCC(=O)OC (single isomer, unassigned) [Example 5, 11α,15-Dihydroxy-16-methyl-16-methoxy-9-oxo-prosta-5(Z), 13(E)-diene-1-oic acid methyl esters]",20%,20%,,,55%,55%,100%,100%
